Holding throughout (assay type): functional
One experiment relates to Pseudomonas aeruginosa. Kind of experiment: Antibacterial activity against Pseudomonas aeruginosa MTCC 1688 assessed as growth inhibition after 24 hr by NCCLS broth microdilution method. The conditions noted are these: MTCC 1688, 24 h. A general note: Broth dilution looks for growth in wells or tubes with falling amounts of substance.
Another experiment deals with Aspergillus niger. As to the kind of experiment: Antifungal activity against Aspergillus niger MTCC 282 assessed as growth inhibition after 48 hr by NCCLS broth microdilution method. The following applies: MTCC 282, 48 h.
For a further experiment, the system named is Streptococcus pyogenes. As to the kind of experiment: Antibacterial activity against Streptococcus pyogenes MTCC 442 assessed as growth inhibition after 24 hr by NCCLS broth microdilution method. The following applies: MTCC 442, 24 h.
A further experiment concerns Staphylococcus aureus. Kind of experiment: Antibacterial activity against Staphylococcus aureus MTCC 96 assessed as growth inhibition after 24 hr by NCCLS broth microdilution method. The following applies: MTCC 96, 24 h.
In the next experiment the test system is Candida albicans. Kind of experiment: Antifungal activity against Candida albicans MTCC 227 assessed as growth inhibition after 48 hr by NCCLS broth microdilution method. The following applies: MTCC 227, 48 h.
In the next experiment the test system is Escherichia coli. As to the kind of experiment: Antibacterial activity against Escherichia coli MTCC 443 assessed as growth inhibition after 24 hr by NCCLS broth microdilution method. The conditions noted are these: MTCC 443, 24 h.
Another experiment relates to Aspergillus clavatus. Kind of experiment: Antifungal activity against Aspergillus clavatus MTCC 1323 assessed as growth inhibition after 48 hr by NCCLS broth microdilution method. The conditions noted are these: MTCC 1323, 48 h.

In brackets after ≈: the same amount, converted by molar mass.

As usually defined, the MIC is the lowest concentration found to suppress growth. For `Cc1ccc2nc(Cl)c(C3CC(c4ccccc4)=NN3C3=NC(=O)CS3)cc2c1` (stereo unspecified), the MIC in the experiment with Pseudomonas aeruginosa worked out at 250 µg/mL (≈ 594 µM); with Aspergillus niger, 500 µg/mL (≈ 1190 µM); in the experiment on Streptococcus pyogenes, 500 µg/mL (≈ 1190 µM); with Staphylococcus aureus it was 250 µg/mL (≈ 594 µM); with Candida albicans, 1000 µg/mL (≈ 2380 µM); in the experiment on Escherichia coli, 500 µg/mL (≈ 1190 µM). Moreover, the MIC in the experiment with Aspergillus clavatus amounted to 500 µg/mL (≈ 1190 µM).

As to `Cc1ccc2nc(Cl)c(C3CC(c4cccc([N+](=O)[O-])c4)=NN3C3=NC(=O)CS3)cc2c1` (stereo unspecified), the MIC was determined as 500 µg/mL (≈ 1070 µM) in the experiment with Pseudomonas aeruginosa; 100 µg/mL (≈ 215 µM) with Aspergillus niger; 500 µg/mL (≈ 1070 µM) with Streptococcus pyogenes; 500 µg/mL (≈ 1070 µM) in the experiment on Staphylococcus aureus; 500 µg/mL (≈ 1070 µM) in the experiment on Candida albicans; 250 µg/mL (≈ 537 µM) with Escherichia coli. The MIC with Aspergillus clavatus amounted to 50 µg/mL (≈ 107 µM).

Consider `Cc1ccc2nc(Cl)c(C3CC(c4ccccc4Cl)=NN3C3=NC(=O)CS3)cc2c1` (stereo unspecified), for which the MIC with Pseudomonas aeruginosa was found to be 50 µg/mL (≈ 110 µM); in the experiment on Aspergillus niger, 50 µg/mL (≈ 110 µM); in the experiment with Streptococcus pyogenes, 50 µg/mL (≈ 110 µM); in the experiment on Staphylococcus aureus it was 250 µg/mL (≈ 549 µM); with Candida albicans, 100 µg/mL (≈ 220 µM); with Escherichia coli it was 50 µg/mL (≈ 110 µM). The MIC in the experiment on Aspergillus clavatus worked out at 100 µg/mL (≈ 220 µM).

For the molecule `CC1(C)S[C@@H]2[C@H](NC(=O)[C@H](N)c3ccccc3)C(=O)N2[C@H]1C(=O)O` [AMPICILLIN], the MIC came to 100 µg/mL (≈ 286 µM) in the experiment on Pseudomonas aeruginosa, 100 µg/mL (≈ 286 µM) in the experiment on Streptococcus pyogenes, 250 µg/mL (≈ 715 µM) in the experiment with Staphylococcus aureus and 100 µg/mL (≈ 286 µM) with Escherichia coli.

Take `Cc1ccc2nc(Cl)c(C3CC(c4ccc(O)cc4)=NN3C3=NC(=O)CS3)cc2c1` (stereo unspecified): the MIC came to 250 µg/mL (≈ 572 µM) with Pseudomonas aeruginosa; 1000 µg/mL (≈ 2290 µM) with Aspergillus niger; 250 µg/mL (≈ 572 µM) in the experiment with Streptococcus pyogenes; 500 µg/mL (≈ 1140 µM) with Staphylococcus aureus; 1000 µg/mL (≈ 2290 µM) with Candida albicans; 500 µg/mL (≈ 1140 µM) in the experiment on Escherichia coli. For the same molecule, in the experiment with Aspergillus clavatus, the MIC is 1000 µg/mL (≈ 2290 µM).

Consider `Cc1ccc2nc(Cl)c(C3CC(c4ccc([N+](=O)[O-])cc4)=NN3C3=NC(=O)CS3)cc2c1` (stereo unspecified), for which the MIC with Pseudomonas aeruginosa came to 250 µg/mL (≈ 537 µM); in the experiment on Aspergillus niger, 25 µg/mL (≈ 53.7 µM); in the experiment on Streptococcus pyogenes, 50 µg/mL (≈ 107 µM); with Staphylococcus aureus, 100 µg/mL (≈ 215 µM); with Candida albicans it was 500 µg/mL (≈ 1070 µM); in the experiment on Escherichia coli it was 50 µg/mL (≈ 107 µM). In addition, in the experiment with Aspergillus clavatus, the MIC was 100 µg/mL (≈ 215 µM).

For the molecule `Cc1ccc2nc(Cl)c(C3CC(c4cccc(F)c4)=NN3C3=NC(=O)CS3)cc2c1` (stereo unspecified), the MIC was 100 µg/mL (≈ 228 µM) with Pseudomonas aeruginosa; 500 µg/mL (≈ 1140 µM) in the experiment with Aspergillus niger; 100 µg/mL (≈ 228 µM) in the experiment on Streptococcus pyogenes; 500 µg/mL (≈ 1140 µM) in the experiment with Staphylococcus aureus; 1000 µg/mL (≈ 2280 µM) with Candida albicans; 500 µg/mL (≈ 1140 µM) with Escherichia coli. For the same molecule, the MIC with Aspergillus clavatus is 500 µg/mL (≈ 1140 µM).

With `COC1=CC(=O)C[C@@H](C)[C@]12Oc1c(Cl)c(OC)cc(OC)c1C2=O` [GRISEOFULVIN], the figures for the MIC in the experiment with Aspergillus niger, with Candida albicans and with Aspergillus clavatus were 100 µg/mL (≈ 283 µM), 500 µg/mL (≈ 1420 µM) and 100 µg/mL (≈ 283 µM), respectively.

Turning to `Cc1ccc2nc(Cl)c(C3CC(c4ccc(Cl)cc4)=NN3C3=NC(=O)CS3)cc2c1` (stereo unspecified), the MIC in the experiment with Pseudomonas aeruginosa was found to be 100 µg/mL (≈ 220 µM); in the experiment on Aspergillus niger, 100 µg/mL (≈ 220 µM); in the experiment on Streptococcus pyogenes it was 50 µg/mL (≈ 110 µM); with Staphylococcus aureus it was 50 µg/mL (≈ 110 µM); in the experiment on Candida albicans, 500 µg/mL (≈ 1100 µM); in the experiment on Escherichia coli it was 250 µg/mL (≈ 549 µM). Moreover, the MIC with Aspergillus clavatus stood at 50 µg/mL (≈ 110 µM).

For `Cc1ccc2nc(Cl)c(C3CC(c4ccccc4O)=NN3C3=NC(=O)CS3)cc2c1` (stereo unspecified), the MIC in the experiment on Pseudomonas aeruginosa was determined as 500 µg/mL (≈ 1140 µM); with Aspergillus niger, 500 µg/mL (≈ 1140 µM); with Streptococcus pyogenes, 250 µg/mL (≈ 572 µM); with Staphylococcus aureus it was 500 µg/mL (≈ 1140 µM); in the experiment on Candida albicans, 1000 µg/mL (≈ 2290 µM); in the experiment with Escherichia coli, 500 µg/mL (≈ 1140 µM). The MIC in the experiment with Aspergillus clavatus was determined as 1000 µg/mL (≈ 2290 µM).

For the molecule `Cc1ccc2nc(Cl)c(C3CC(c4ccccc4[N+](=O)[O-])=NN3C3=NC(=O)CS3)cc2c1` (stereo unspecified), the MIC with Pseudomonas aeruginosa stood at 12.5 µg/mL (≈ 26.8 µM); in the experiment with Aspergillus niger, 50 µg/mL (≈ 107 µM); in the experiment on Streptococcus pyogenes it was 25 µg/mL (≈ 53.7 µM); with Staphylococcus aureus, 250 µg/mL (≈ 537 µM); with Candida albicans, 250 µg/mL (≈ 537 µM); with Escherichia coli, 25 µg/mL (≈ 53.7 µM). Also, the MIC in the experiment with Aspergillus clavatus came to 12.5 µg/mL (≈ 26.8 µM).

Turning to `Cc1ccc2nc(Cl)c(C3CC(c4ccc(F)cc4)=NN3C3=NC(=O)CS3)cc2c1` (stereo unspecified), the MIC in the experiment on Pseudomonas aeruginosa worked out at 50 µg/mL (≈ 114 µM); in the experiment with Aspergillus niger, 250 µg/mL (≈ 570 µM); with Streptococcus pyogenes, 25 µg/mL (≈ 57 µM); with Staphylococcus aureus it was 100 µg/mL (≈ 228 µM); in the experiment with Candida albicans it was 250 µg/mL (≈ 570 µM); in the experiment on Escherichia coli, 50 µg/mL (≈ 114 µM). In addition, the minimum inhibitory concentration (MIC) in the experiment on Aspergillus clavatus was determined as 100 µg/mL (≈ 228 µM).

Turning to `COc1ccc(C2=NN(C3=NC(=O)CS3)C(c3cc4cc(C)ccc4nc3Cl)C2)cc1` (stereo unspecified), the MIC in the experiment on Pseudomonas aeruginosa stood at 500 µg/mL (≈ 1110 µM); in the experiment with Aspergillus niger, 500 µg/mL (≈ 1110 µM); in the experiment on Streptococcus pyogenes, 500 µg/mL (≈ 1110 µM); with Staphylococcus aureus, 500 µg/mL (≈ 1110 µM); in the experiment with Candida albicans, 1000 µg/mL (≈ 2220 µM); with Escherichia coli, 500 µg/mL (≈ 1110 µM). For the same molecule, in the experiment on Aspergillus clavatus, the minimal inhibitory concentration (MIC) is 500 µg/mL (≈ 1110 µM).

Regarding `Cc1ccc2nc(Cl)c(C3CC(c4ccccc4F)=NN3C3=NC(=O)CS3)cc2c1` (stereo unspecified), the MIC with Pseudomonas aeruginosa amounted to 250 µg/mL (≈ 570 µM); with Aspergillus niger it was 50 µg/mL (≈ 114 µM); in the experiment on Streptococcus pyogenes, 500 µg/mL (≈ 1140 µM); with Staphylococcus aureus, 100 µg/mL (≈ 228 µM); with Candida albicans it was 100 µg/mL (≈ 228 µM); in the experiment with Escherichia coli, 25 µg/mL (≈ 57 µM). Besides, the MIC with Aspergillus clavatus came to 500 µg/mL (≈ 1140 µM).
